Common to all, as to type: cell-based, human
One assay concerns MES SA DX. As to the kind of experiment: Cytotoxicity assay (72 hour killing assay, CellTiter-Glo), MES SA DX. Conditions: Homo sapiens, read-out: Cancer cell lines IC50 (nM) MES SA DX. On the procedure:
(§1) Cells were cultured in a T75 flask to ˜50-80% confluency and harvested with trypsin into a single cell suspension. Five hundred (500) cells per well were seeded in tissue culture plates in 50 μL/well culture media and incubated at 37° C. for 18-24 h. Compounds were diluted as 400× final desired concentrations in DMSO. Serial dilutions in DMSO were then diluted in culture media for a final DMSO concentration of 0.25% and 50 μL/well of the final dilution was added to the cells (Vf=100 μL). Upon plating and treatment, cells were returned to the incubator for an additional 72 hours. CellTiter-Glo reagent was prepared per manufacturer's instructions and added at 100 μL/well to the cultures. CellTiter-Glo allows for relative enumeration of metabolically active cells by quantifying intracellular ATP concentrations. After 5 minutes of incubation with CellTiter-Glo at ambient room temperature, 125 μL/well of the Cell Titer glo/cell lysate solution was transferred into black assay plates, which were then read in a luminometer within 30 minutes.
(§2) MES SA and MES SA/Dx cells are uterine sarcoma. MES SA Dx cell line was generated from MES SA to achieve upregulation of MDR1.
(Cellular ATP, detected with luciferase, serves as a proxy for viable cell number.)

For another assay, the system named is HEK 293T. As to the kind of experiment: Cytotoxicity assay (72 hour killing assay, CellTiter-Glo), HEK 293T. Conditions: Homo sapiens, HEK-293T, 72 h, read-out: Cancer cell lines IC50 (nM) HEK 293T. On the procedure:
as §1
293T cells are human embryonic kidney cell line.

The subject of another assay is MES SA. As to the kind of experiment: Cytotoxicity assay (72 hour killing assay, CellTiter-Glo), MES SA. Conditions: MES-SA, read-out: Cancer cell lines IC50 (nM) MES SA. On the procedure: as §1, §2

SMILES strings stand for the structures. Like-named read-outs stand apart in the source and are kept apart here.

For `CC(=O)O[C@@H](C)/C=C\C(=O)N[C@@H]1C[C@H](C)[C@H](C/C=C(C)/C=C/[C@H]2O[C@H](CC(=O)O)C[C@@]3(CO3)[C@@H]2O)O[C@@H]1C` [Compound 1, Thailanstatin A], the IC50 with MES SA DX (MES-SA, 72 h) is greater than 400 nM; in the assay on HEK 293T, 296 nM; in the assay on MES SA (Homo sapiens, 72 h) it was 419 nM.

Take `COC(=O)C[C@@H]1C[C@@]2(CO2)[C@H](O)[C@@H](/C=C/C(C)=C/C[C@@H]2O[C@H](C)[C@H](NC(=O)/C=C\[C@H](C)OC(C)=O)C[C@@H]2C)O1` [Compound 2, Thailanstatin A methyl ester]: the IC50 in the assay on MES SA DX (MES-SA, 72 h) was 3.6 nM; with HEK 293T, 0.36 nM; in the assay with MES SA (Homo sapiens, 72 h) it was 0.32 nM.

`COC(=O)C[C@@H]1C[C@@]2(CO2)[C@H](O)[C@@H](/C=C/C(C)=C/C[C@H]2O[C@H](C)[C@H](NC(=O)/C=C\[C@H](C)OC(C)=O)C=C2C)O1` [Compound 30]: the IC50 is greater than 1000 nM with MES SA DX (MES-SA, 72 h); greater than 1000 nM with HEK 293T; greater than 1000 nM in the assay with MES SA (Homo sapiens, 72 h).

In the case of `CC(=O)O[C@@H](C)/C=C\C(=O)N[C@@H]1C[C@H](C)[C@H](C/C=C(C)/C=C/[C@H]2O[C@H](CC(=O)NC3CC3)C[C@@]3(CO3)[C@@H]2O)O[C@@H]1C` [Compound 31, (2S,3Z)-5-({(2R,3R,5S,6S)-6-[(2E,4E)-5-{(3R,4R,5R,7S)-7-[2-(Cyclopropylamino)-2-oxoethyl]-4-hydroxy-1,6-dioxaspiro[2.5]oct-5-yl}-3-methylpenta-2,4-dien-1-yl]-2,5-dimethyltetrahydro-2H-pyran-3-yl}amino)-5-oxopent-3-en-2-yl acetate], the IC50 worked out at 105 nM with MES SA DX (MES-SA, 72 h); 0.739 nM with HEK 293T; 1.04 nM in the assay on MES SA (Homo sapiens, 72 h).

As to `COC(=O)C[C@@H]1C[C@@]2(CO2)[C@H](O)[C@@H](/C=C/C(C)=C/C[C@@H]2O[C@H](C)[C@H](NC(=O)/C=C\[C@H](C)OC(C)=O)C=C2C)O1` [Compound 32], the IC50 was greater than 1000 nM in the assay on MES SA DX (MES-SA, 72 h); greater than 1000 nM with HEK 293T; greater than 1000 nM in the assay on MES SA (Homo sapiens, 72 h).

Take `CCOC(=O)CCNC(=O)C[C@@H]1C[C@@]2(CO2)[C@H](O)[C@@H](/C=C/C(C)=C/C[C@@H]2O[C@H](C)[C@H](NC(=O)/C=C\[C@H](C)OC(C)=O)C[C@H]2C)O1` [Compound 33, Ethyl 3-({[(3R,5S,7R,8R)-7-{(1E,3E)-5-[(2S,3R,5R,6R)-5-{[(2Z,4S)-4-acetoxypent-2-enoyl]amino}-3,6-dimethyltetrahydro-2H-pyran-2-yl]-3-methylpenta-1,3-dien-1-yl}-8-hydroxy-1,6-dioxaspiro[2.5]oct-5-yl]acetyl}amino)propanoate]: the IC50 with MES SA DX (MES-SA, 72 h) was greater than 2500 nM; in the assay with HEK 293T, 1480 nM; in the assay with MES SA (Homo sapiens, 72 h), 512 nM.

For `COC(=O)C[C@@H]1C[C@@]2(CO2)[C@H](O)[C@@H](/C=C/C(C)=C/C[C@@H]2O[C@H](C)[C@H](NC(=O)/C=C\[C@H](C)OC(C)=O)C[C@H]2C)O1` [Compound 34, Methyl [(3R,5S,7R,8R)-7-{(1E,3E)-5-[(2S,3R,5R,6R)-5-{[(2Z,4S)-4-acetoxypent-2-enoyl]amino}-3,6-dimethyltetrahydro-2H-pyran-2-yl]-3-methylpenta-1,3-dien-1-yl}-8-hydroxy-1,6-dioxaspiro[2.5]-oct-5-yl]acetate], the IC50 was greater than 1000 nM in the assay with MES SA DX (MES-SA, 72 h); greater than 1000 nM with HEK 293T; 649 nM in the assay with MES SA (Homo sapiens, 72 h).

As to `CCOC(=O)CCNC(=O)C[C@@H]1C[C@@]2(CO2)[C@H](O)[C@@H](/C=C/C(C)=C/C[C@@H]2O[C@H](C)[C@H](NC(=O)/C=C\[C@H](C)OC(C)=O)C[C@@H]2C)O1` [Compound 35, Ethyl 3-({[(3R,5S,7R,8R)-7-{(1E,3E)-5-[(2S,3S,5R,6R)-5-{[(2Z,4S)-4-acetoxypent-2-enoyl]amino}-3,6-dimethyltetrahydro-2H-pyran-2-yl]-3-methylpenta-1,3-dien-1-yl}-8-hydroxy-1,6-dioxaspiro-[2.5]oct-5-yl]acetyl}amino)propanoatee], the IC50 in the assay with MES SA DX (MES-SA, 72 h) was 261 nM; in the assay with HEK 293T, 2.2 nM; in the assay with MES SA (Homo sapiens, 72 h), 6.9 nM.

Regarding `COC(=O)C[C@@H]1C[C@@]2(CO2)[C@H](O)[C@@H](/C=C/C(C)=C/C[C@@H]2O[C@H](C)[C@H](NC(=O)/C=C\[C@H](C)OC(=O)N(C)C)C[C@@H]2C)O1` [Compound 36, Methyl [(3R,5S,7R,8R)-7-{(1E,3E)-5-[(2S,3S,5R,6R)-5-({(2Z,4S)-4-[(dimethylcarbamoyl)oxy]pent-2-enoyl}amino)-3,6-dimethyltetrahydro-2H-pyran-2-yl]-3-methylpenta-1,3-dien-1-yl}-8-hydroxy-1,6-dioxaspiro[2.5]oct-5-yl]acetate], the IC50 came out at 1.09 nM in the assay with MES SA DX (MES-SA, 72 h); 0.08 nM in the assay with HEK 293T; 0.92 nM with MES SA (Homo sapiens, 72 h).

For the molecule `COC(=O)C[C@@H]1C[C@@]2(CO2)[C@H](O)[C@@H](/C=C/C(C)=C/C[C@@H]2O[C@H](C)[C@H](NC(=O)/C=C\[C@H](C)OC(=O)N3CCCCC3)C[C@H]2C)O1` [Compound 38, (2S,3Z)-5-{[(2R,3R,5R,6S)-6-{(2E,4E)-5-[(3R,4R,5R,7S)-4-Hydroxy-7-(2-methoxy-2-oxoethyl)-1,6-dioxaspiro[2.5]oct-5-yl]-3-methylpenta-2,4-dien-1-yl}-2,5-dimethyltetrahydro-2H-pyran-3-yl]-amino}-5-oxopent-3-en-2-yl piperidine-1-carboxylate], the IC50 in the assay with MES SA DX (MES-SA, 72 h) is greater than 2500 nM; in the assay with HEK 293T, greater than 400 nM; in the assay with MES SA (Homo sapiens, 72 h), greater than 2500 nM.

As for `COC(=O)C[C@@H]1C[C@@]2(CO2)[C@H](O)[C@@H](/C=C/C(C)=C/C[C@@H]2O[C@H](C)[C@H](NC(=O)/C=C\[C@H](C)OC(=O)N3CCOCC3)C[C@H]2C)O1` [Compound 40], the concentration for half-maximal inhibition (IC50) in the assay with MES SA DX (MES-SA, 72 h) is greater than 2500 nM; in the assay with HEK 293T, greater than 400 nM; with MES SA (Homo sapiens, 72 h) it was greater than 2500 nM.

With `COC(=O)C[C@@H]1C[C@@]2(CO2)[C@H](O)[C@@H](/C=C/C(C)=C/C[C@@H]2O[C@H](C)[C@H](NC(=O)/C=C\[C@H](C)OC(=O)N3CCCCC3)C[C@@H]2C)O1` [Compound 42], the IC50 is 3.45 nM in the assay with MES SA DX (MES-SA, 72 h); 0.24 nM in the assay on HEK 293T; 3.68 nM in the assay with MES SA (Homo sapiens, 72 h).

In the case of `COC(=O)C[C@@H]1CC2(CC2)[C@H](O)[C@@H](/C=C/C(C)=C/C[C@@H]2O[C@H](C)[C@H](NC(=O)/C=C\[C@H](C)OC(C)=O)C[C@@H]2C)O1` [Compound 43, Methyl [(5S,7R,8S)-7-{(1E,3E)-5-[(2S,3S,5R,6R)-5-{[(2Z,4S)-4-acetoxypent-2-enoyl]amino}-3,6-di-methyltetrahydro-2H-pyran-2-yl]-3-methylpenta-1,3-dien-1-yl}-8-hydroxy-6-oxaspiro[2.5]oct-5-yl]-acetate], the IC50 was greater than 2500 nM with MES SA DX (MES-SA, 72 h); 88.3 nM with HEK 293T; greater than 2500 nM in the assay with MES SA (Homo sapiens, 72 h).

In the case of `COC(=O)C[C@@H]1C[C@@]2(CO2)[C@H](O)[C@@H](/C=C/C(C)=C/C[C@@H]2O[C@H](C)[C@H](NC(=O)/C=C\[C@H](C)OC(=O)N3CCOCC3)C[C@@H]2C)O1` [Compound 44], the IC50 amounted to 3.71 nM in the assay on MES SA DX (MES-SA, 72 h); 0.15 nM with HEK 293T; 2.66 nM in the assay with MES SA (Homo sapiens, 72 h).

Consider `COC(=O)C[C@@H]1C[C@@]2(CO2)[C@H](OC(C)=O)[C@@H](/C=C/C(C)=C/C[C@@H]2O[C@H](C)[C@H](NC(=O)/C=C\[C@H](C)OC(C)=O)C[C@@H]2C)O1` [Compound 45, Methyl [(3R,5S,7R,8R)-8-acetoxy-7-{(1E,3E)-5-[(2S,3S,5R,6R)-5-{[(2Z,4S)-4-acetoxypent-2-enoyl]-amino}-3,6-dimethyltetrahydro-2H-pyran-2-yl]-3-methylpenta-1,3-dien-1-yl}-1,6-dioxaspiro[2.5]-oct-5-yl]acetate], for which the IC50 with MES SA DX (MES-SA, 72 h) worked out at 6.73 nM; in the assay on HEK 293T it was 0.58 nM; with MES SA (Homo sapiens, 72 h) it was 6.82 nM.

In the case of `COC(=O)C[C@@H]1C[C@@]2(CO2)[C@H](O)[C@@H](/C=C/C(C)=C\C[C@@H]2O[C@H](C)[C@H](NC(=O)/C=C\[C@H](C)OC(C)=O)C=C2C)O1` [Compound 46], the IC50 was greater than 1000 nM in the assay with MES SA DX (MES-SA, 72 h); greater than 1000 nM in the assay on HEK 293T; greater than 1000 nM with MES SA (Homo sapiens, 72 h).

In the case of `COC(=O)C[C@@H]1C[C@@]2(CO2)[C@H](O)[C@@H](/C=C/C(C)=C\C[C@@H]2O[C@H](C)[C@H](NC(=O)/C=C\[C@H](C)OC(C)=O)C[C@H]2C)O1` [Compound 47, Methyl [(3R,5S,7R,8R)-7-{(1E,3Z)-5-[(2S,3R,5R,6R)-5-{[(2Z,4S)-4-acetoxypent-2-enoyl]amino}-3,6-dimethyltetrahydro-2H-pyran-2-yl]-3-methylpenta-1,3-dien-1-yl}-8-hydroxy-1,6-dioxaspiro[2.5]-oct-5-yl]acetate], the half-inhibitory concentration (IC50) with MES SA DX (MES-SA, 72 h) is greater than 1000 nM; in the assay with HEK 293T, greater than 1000 nM; with MES SA (Homo sapiens, 72 h), greater than 1000 nM.

For the molecule `CC(=O)O[C@H]1C(=O)[C@@]2(C)[C@H]([C@H](OC(=O)c3ccccc3)[C@]3(O)C[C@H](OC(=O)[C@H](O)[C@@H](NC(=O)c4ccccc4)c4ccccc4)C(C)=C1C3(C)C)[C@]1(OC(C)=O)CO[C@@H]1C[C@@H]2O` [paclitaxel, reference compound], the IC50 with MES SA DX (50% inhibitory concentration against cell growth, MES SA cell line with marked multidrug resistance, 72 hours) was greater than 400 nM; with MES SA (50% inhibitory concentration against cell growth, human uterine sarcoma cell line, 72 hours), 2.47 nM.

By IC50 is commonly meant the concentration that inhibits the measured activity by half.

Source of the values: US11584754B2, “Derivatives of thailanstatin A, methods of treatment and methods of synthesis thereof” (WILLIAM MARSH RICE UNIVERSITY, priority 2016, dated 2023).
